# Results as given in the RepoRT retention time repository.
# Assay: Agilent ZORBAX 300 SB-C18, 150 × 1 mm, 3.5 µm; A: water + 0.01% heptafluorobutyric acid; B: acetonitrile + 0.01% heptafluorobutyric acid; gradient (min/%B) 0/0 100/90
# Conditions: stereoisomer not certain
row,SMILES,LC retention time [min]
1,CCn1c(-c2ccccc2)csc1=Nc1ccc(C)c(C)c1,12.5
2,CC1=C(C(=O)c2ccccc2)CC(C(=O)c2ccccc2)=C(C)N1,13.2
3,Cn1cccc1C=NNC(=O)CCCC(=O)NN=Cc1cccn1C,10.2
4,O=C(C=Cc1ccco1)C1CC1,12.1
5,Cc1ccc2nc(C)cc(C(=O)O)c2c1,6.16
6,CC(=O)Nc1ccccc1N,6.82
7,COC(=O)CN,3.64
8,Cc1cccc(C=NNC(=O)C[n+]2ccccc2)c1,9.09
9,C=CN1CCCC1=O,7.85
10,Nc1cccc(S(=O)(=O)O)c1,1.45
11,NC(=O)Cc1ccc(O)cc1,5.97
12,COc1cccc(OCCN)c1,8.13
13,CCn1c2ccccc2c2cc(CNC)ccc21,10.2
14,CN(C)CCNC1=CC(=O)CC(c2ccccc2)C1 (stereo not drawn),8.55
15,C[N+]1(CCOCc2ccccc2)CC[N+](C)(CCOCc2ccccc2)CC1 (stereo not drawn),9.32
16,Nc1ccc(OCc2ccccc2)cc1,9.84
17,CN1N=C(C(=O)O)CCC1=O,3.29
18,CCCCCCCCN,10.2
19,CC1(C)CC(N2CN(C3CCCCC3)CC2=O)CC(C)(C)N1,8.03
20,O=Cc1cccc2[nH]ccc12,9.79
21,Cc1c(N)cccc1C(N)=O,5.38
22,O=C(NCCNC(=O)c1ccccn1)c1ccccn1,8.71
23,COC(=O)CCN1CCCCC1,7.02
24,COc1ccc(NC(=O)c2ccc(N3C(=O)CCC3=O)cc2)cc1,10.3
25,CC(=O)N=Nc1c(O)[nH]c2ccccc12,7.66
26,NC(CCC(=O)OCc1ccccc1)C(=O)O (stereo not drawn),8.38
27,CC(=O)Nc1ccc(CC(C(=O)O)c2ccccc2)cc1 (stereo not drawn),10.6

row,SMILES,LC retention time [min]
1,Cc1ccnc2c1ccc1cccnc12,8.43
2,CC(C)NCC(O)COc1ccc(CCOCC2CC2)cc1 (stereo not drawn),10.7
3,O=C(O)Cn1cnc2ccccc2c1=O,7.3
4,O=C1CNCC(=O)N1CCc1ccccc1,9.32
5,CC1N(CCC(N)=O)c2ccccc2C1(C)C (stereo not drawn),11.8
6,CCCCCCCCN(CCCCCCCC)CCCCCCCC,19.5
7,NCC(=O)Nc1ccccc1,7.45
8,C=CCC(N)(CC=C)C1=CC(CC(=C)C)NC(CC(=C)C)C1 (stereo not drawn),8.79
9,Cc1ccccc1N1C(=O)c2ccc(C(=O)O)cc2C1=O,12
10,c1ccc(Cn2c3ccccc3c3ccccc32)cc1,18.8
11,CCc1ccc(NCCC(=O)c2ccc3c(c2)Cc2ccccc2-3)cc1,16.3
12,CCCCCC[N+](C)(C)Cc1ccccc1,10.7
13,Cc1ccc2cc(C(=O)O)c(=O)[nH]c2c1,9.64
14,CC(=O)N1c2ccc(N)cc2CC1C (stereo not drawn),7.53
15,Cc1cc(N)c2c(c1)CCC(=O)N2,8.69
16,O=C1CC(N2CCN(C3CC(=O)N(CCc4ccccc4)C3=O)CC2)C(=O)N1CCc1ccccc1 (stereo not drawn),12.4
17,CCCCCCCCSCCSC(=N)N,12.7
18,Cc1cc(=O)[nH]c(N=C(N)N2CCOCC2)n1,6.89
19,CC(=NNC(=O)CNC(=O)C(c1ccccc1)c1ccccc1)c1ccc(N(C)C)cc1,13.9
20,CNCc1cccc(OC)c1OC,7.9
21,NC(=O)c1ccccc1NC(=O)Cn1cnc2ccccc2c1=O,9.05
22,CCCCCCNC(=O)c1ccc(OC(C)=O)cc1,13.8
23,CCNCC(O)CC (stereo not drawn),6.36
24,CN1CCCCC1=O,7.29
25,NCCc1csc2c1CCCC2,9.41
26,C=CCN1CCC23c4c5ccc(O)c4OC2C(O)C=CC3C1C5 (stereo not drawn),8.18
